From patent US6737383B1, “Herbicidal oxadiazolidines” (priority 1999, dated 2004)

Columns and labels:
purple nutsedge = assay: Test D purple nutsedge; format: in vivo, Cyperus rotundus; settings: Postemergence, 0 to 100 scale; for Purple nutsedge plant response rating: 0 no injury, 100 complete control
common groundsel = assay: Test D common groundsel; format: in vivo, Senecio vulgaris; settings: Postemergence, 0 to 100 scale
pitted morningglory = assay: Test D pitted morningglory; format: in vivo, Ipomoea lacunosa; settings: Postemergence, 0 to 100 scale
surinam grass = assay: Test D surinam grass; format: in vivo, Brachiaria decumbens; settings: Postemergence, 0 to 100 scale; for Surinam grass plant response rating: 0 no injury, 100 complete control
common ragweed = assay: Test D common ragweed; format: in vivo, Ambrosia elatior; settings: Postemergence, 0 to 100 scale
tall mallow = assay: Test D tall mallow; format: in vivo, Malva sylvestris; settings: Postemergence, 0 to 100 scale; for Tall Mallow plant response rating: 0 no injury, 100 complete control
deadnettle = assay: Test E deadnettle; format: in vivo, Lamium amplexicaule; settings: Postemergence
Description: (§1) Compounds evaluated in this test were formulated in a non-phytotoxic solvent mixture which included a surfactant and applied to plants that were in the 1- to 4-leaf stage (postemergence application). A mixture of sandy loam soil and greenhouse potting mix in a 60:40 ratio was used for the postemergence test.
(§2) Plantings of these crops and weed species were adjusted to produce plants of appropriate size for the postemergence test. All plant species were grown using normal greenhouse practices. Crop and weed species include annual bluegrass (Poa annua), blackgrass (Alopecurus myosuroides), black nightshade (Solanum nigra), chickweed (Stellaria media), common poppy (Papaver rhoeas), deadnettle (Lamium amplexicaule), downy brome (Bromus tectorum), field violet (Viola arvensis), galium (Galium aparine), green foxtail (Setaria viridis), Italian ryegrass (Lolium multiflorum), jointed goatgrass (Aegilops cylindrica), kochia (Kochia scoparia), lambsquarters (Chenopodium album), littleseed canarygrass (Phalaris minor), rape (Brassica napus), redroot pigweed (Amaranthus retroflexus), Russian thistle (Salsola kali), scentless chamomile (Matricaria inodora), spring barley (Hordeum vulgare), sugar beet (Beta vulgaris), sunflower (Helianthus annuus), ivyleaf speedwell (Veronica hederaefolia), spring wheat (Triticum aestivum), winter wheat (Triticum aestivum), wild buckwheat (Polygonum convolvulus), wild mustard (Sinapis arvensis), wild oat (Avena fatua), windgrass (Apera spica-venti) and winter barley (Hordeum vulgare).
(§3) Treated plants and untreated controls were maintained in a greenhouse for approximately 21 to 28 days, after which all treated plants were compared to untreated controls and visually evaluated. […] A dash response (-) means no test result.

galium = assay: Test E galium; format: in vivo, Galium aparine; settings: Preemergence
littleseed canarygrass [1] = assay: Test E littleseed canarygrass; format: in vivo, Phalaris minor; settings: Preemergence
wild oat = assay: Test E wild oat; format: in vivo, Avena fatua; settings: Postemergence
How it was run: (§4)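 For postemergence, sowings are timed so plants reach the 1- to 4-leaf stage at spraying. Test compound is applied in a surfactant-containing solvent mixture that is non-phytotoxic. Response is judged by eye against untreated controls after approximately 21 to 28 days.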

spring barley = assay: Test E spring barley; format: in vivo, Hordeum vulgare; settings: Preemergence
jointed goatgrass = assay: Test E jointed goatgrass; format: in vivo, Aegilops cylindrica; settings: Preemergence
redroot pigweed = assay: Test E redroot pigweed; format: in vivo, Amaranthus retroflexus; settings: Postemergence
Description: as §1, §2, §3

windgrass = assay: Test E windgrass; format: in vivo, Apera spica-venti; settings: Preemergence
annual bluegrass = assay: Test E annual bluegrass; format: in vivo, Poa annua; settings: Postemergence
Description: as §1, §2, §3

chickweed = assay: Test E chickweed; format: in vivo, Stellaria media; settings: Postemergence
How it was run: as §4

littleseed canarygrass [2] = assay: Test E littleseed canarygrass; format: in vivo, Phalaris minor; settings: Postemergence
Description: as §1, §2, §3

common poppy = assay: Test E common poppy; format: in vivo, Papaver rhoeas; settings: Postemergence
Description: as §1, §2, §3

Italian ryegrass = assay: Test E Italian ryegrass; format: in vivo, Lolium multiflorum; settings: Postemergence
Description: as §1, §2, §3

blackgrass = assay: Test E blackgrass; format: in vivo, Alopecurus myosuroides; settings: Postemergence
Description: as §1, §2, §3

lambsquarters = assay: Test E lambsquarters; format: in vivo, Chenopodium album; settings: Preemergence
field violet = assay: Test E field violet; format: in vivo, Viola arvensis; settings: Postemergence
How it was run: as §4

Russian thistle = assay: Test E Russian thistle; format: in vivo, Salsola kali; settings: Preemergence
rape = assay: Test E rape; format: in vivo, Brassica napus; settings: Preemergence
[3] = Rate 64 g/ha, 0 no injury, 100 complete control
[4] = Rate 125 g/ha, 0 no injury, 100 complete control
[5] = Rate 250 g/ha, 0 to 100 scale (0 no effect, 100 complete control)
[6] = Rate 500 g/ha, 0 to 100 scale, 0 no effect, 100 complete control
[7] = Rate 125 g/ha, 0 to 100 scale (0 no effect, 100 complete control)
[8] = Rate 500 g/ha, 0 to 100 scale where 0 is no effect and 100 is complete control

CC(C)N(C(=O)n1oc(=O)n(C2CC2)c1=O)c1ccc(F)cc1F [Compound 299]
70: Plant response rating, Tall Mallow (tall mallow; Rate 250 g/ha)
50: Surinam grass plant response rating (surinam grass; Rate 64 g/ha) | Plant response rating, C. ragweed (common ragweed; [4])
0: Purple nutsedge plant response rating (purple nutsedge; Rate 64 g/ha) | Purple nutsedge plant response rating (purple nutsedge; Rate 125 g/ha) | Plant response rating, Purple nutsedge (purple nutsedge; Rate 250 g/ha) | Plant response rating, P. morninglory (pitted morningglory; [3]) | Plant response rating, P. morninglory (pitted morningglory; [4]) | Plant response rating, P. morninglory (pitted morningglory; Rate 250 g/ha) | Plant response rating, P. morninglory (pitted morningglory; Rate 500 g/ha)
90: Tall Mallow plant response rating (tall mallow; Rate 125 g/ha)
30: Tall Mallow plant response rating (tall mallow; Rate 64 g/ha)
100: Plant response rating, Purple nutsedge (purple nutsedge; Rate 500 g/ha) | Plant response rating, Com. groundsel (common groundsel; [3]) | Plant response rating, Com. groundsel (common groundsel; [4]) | Plant response rating, Com. groundsel (common groundsel; Rate 250 g/ha) | Plant response rating, Com. groundsel (common groundsel; Rate 500 g/ha) | Surinam grass plant response rating (surinam grass; Rate 125 g/ha) | Plant response rating Surinam grass (surinam grass; Rate 250 g/ha) | Plant response rating Surinam grass (surinam grass; Rate 500 g/ha) | Plant response rating, C. ragweed (common ragweed; [3]) | Plant response rating, C. ragweed (common ragweed; Rate 250 g/ha) | Plant response rating, C. ragweed (common ragweed; Rate 500 g/ha) | Plant response rating, Tall Mallow (tall mallow; Rate 500 g/ha)

CC(C)N(C(=O)n1oc(=O)n(C(C)C)c1=O)c1ccc(F)cc1F [Compound 109]
30: Plant response rating, Deadnettle (deadnettle; [5]) | Plant response rating, Deadnettle (deadnettle; [6]) | Plant response rating, Comnion poppy (common poppy; Rate 125 g/ha, 0 to 100 scale) | Plant response rating, Blackgrass (blackgrass; Rate 125 g/ha, 0 to 100 scale)
60: Plant response rating, LS canarygrass (littleseed canarygrass [1]; Rate 250 g/ha, 0 to 100 scale) | Plant response rating Lambsquarters (lambsquarters; [7])
15: Plant response rating, Redroot pigweed (redroot pigweed; [5]) | Plant response rating, Redroot pigweed (redroot pigweed; [6])
100: Plant response rating, Galium (galium; [7]) | Plant response rating, Galium (galium; Rate 250 g/ha, 0 to 100 scale) | Plant response rating, Galium (galium; [8]) | Plant response rating, Windgrass (windgrass; [7]) | Plant response rating, Windgrass (windgrass; [8]) | Plant response rating Lambsquarters (lambsquarters; Rate 250 g/ha, 0 to 100 scale) | Plant response rating Lambsquarters (lambsquarters; [8])
0: Plant response rating, Deadnettle (deadnettle; Rate 125 g/ha, 0 to 100 scale) | Plant response rating, Wild oat (wild oat; Rate 125 g/ha, 0 to 100 scale) | Plant response rating, Wild oat (wild oat; [5]) | Plant response rating, Chickweed (chickweed; Rate 125 g/ha, 0 to 100 scale) | Plant response rating, Chickweed (chickweed; [5]) | Plant response rating, Russian thistle (Russian thistle; [7]) | Plant response rating, Russian thistle (Russian thistle; Rate 250 g/ha, 0 to 100 scale) | Plant response rating, Russian thistle (Russian thistle; [8])
65: Plant response rating, Jointed goatgra (jointed goatgrass; Rate 250 g/ha, 0 to 100 scale) | Plant response rating, LS canarygrass (littleseed canarygrass [2]; [6]) | Plant response rating, I. Ryegrass (Italian ryegrass; [6]) | Plant response rating, Rape (rape; [8])
40: Plant response rating, Field violet (field violet; [6])
10: Plant response rating, Wild oat (wild oat; [6]) | Plant response rating, Annual bluegras (annual bluegrass; Rate 125 g/ha, 0 to 100 scale) | Plant response rating, Annual bluegras (annual bluegrass; [5]) | Plant response rating, Chickweed (chickweed; [6]) | Plant response rating, Common poppy (common poppy; [5]) | Plant response rating, Common poppy (common poppy; [6]) | Plant response rating, I. Ryegrass (Italian ryegrass; Rate 125 g/ha, 0 to 100 scale) | Plant response rating, I. Ryegrass (Italian ryegrass; [5]) | Plant response rating, Blackgrass (blackgrass; [5]) | Plant response rating, Field violet (field violet; Rate 125 g/ha, 0 to 100 scale) | Plant response rating, Rape (rape; [7])
70: Plant response rating, Jointed goatgra (jointed goatgrass; [8]) | Plant response rating, Blackgrass (blackgrass; [6])
50: Plant response rating, LS canarygrass (littleseed canarygrass [1]; [7]) | Plant response rating, LS canarygrass (littleseed canarygrass [1]; [8]) | Plant response rating, Spring Barley (spring barley; [8]) | Plant response rating, Annual bluegras (annual bluegrass; [6]) | Plant response rating, LS canarygrass (littleseed canarygrass [2]; [5])
25: Plant response rating, LS canarygrass (littleseed canarygrass [2]; Rate 125 g/ha, 0 to 100 scale)
20: Plant response rating, Spring Barley (spring barley; Rate 250 g/ha, 0 to 100 scale) | Plant response rating, Jointed goatgra (jointed goatgrass; [7]) | Plant response rating, Redroot pigweed (redroot pigweed; Rate 125 g/ha, 0 to 100 scale) | Plant response rating, Field violet (field violet; [5])
5: Plant response rating, Spring Barley (spring barley; [7])
55: Plant response rating, Rape (rape; Rate 250 g/ha, 0 to 100 scale)
